Test results reported in US9187472B2 (AbbVie Inc., priority 2012, dated 2015).

Experiments:
PC3 cells = assay: NAMPT Cell Proliferation Assay; assay type: cell-based; settings: Homo sapiens, PC-3, 120 h, 5 days incubation, cell viability by Cell Titer Glo
Procedure, shortened: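 Following overnight attachment in RPMI with 10% heat-inactivated FBS, PC3 cells at 500 per well receive compounds spanning 10 μM down to 1×10^−5 μM. Growth is assessed by luminescent viability read after 5 days.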

NAMPT = NAMPT (Homo sapiens, UniProt P43490); assay: TR-FRET Binding Assay of NAMPT with PRPP; settings: with 200 μM PRPP and 2.5 mM ATP; 2 nM NAMPT, 2 nM probe, 16 hours equilibration
Procedure, shortened: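 TR-FRET probe-displacement binding with 2 nM NAMPT, 2 nM probe and 1 nM Tb-anti-His antibody, run in the presence of 200 μM PRPP and 2.5 mM ATP at 2% DMSO. Equilibrated 16 hours before reading so test compounds could undergo enzymatic modification.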

[1] = target: NAMPT (human, recombinant, C-terminally His-tagged) (Homo sapiens, UniProt P43490); assay: Time-Resolved Fluorescence Resonance Energy Transfer (TR-FRET) Binding Assay of NAMPT; settings: without substrates; 6.8 nM NAMPT, 200 nM probe, 3 hours equilibration
Procedure, shortened: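 11-pt half-log compound series; final 6.8 nM NAMPT, 200 nM OG488 nicotinamide-competitive probe, 1 nM Tb-anti-His Ab, 2% DMSO, HEPES pH 7.5/NaCl/MgCl2/DTT/glycerol buffer. 3 h RT equilibration. Em520/Em495 ratio (Ex 337 nm), control-normalized, 4-parameter fit → IC50.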

Sequence of NAMPT (human, recombinant, C-terminally His-tagged) (P43490 whole entry): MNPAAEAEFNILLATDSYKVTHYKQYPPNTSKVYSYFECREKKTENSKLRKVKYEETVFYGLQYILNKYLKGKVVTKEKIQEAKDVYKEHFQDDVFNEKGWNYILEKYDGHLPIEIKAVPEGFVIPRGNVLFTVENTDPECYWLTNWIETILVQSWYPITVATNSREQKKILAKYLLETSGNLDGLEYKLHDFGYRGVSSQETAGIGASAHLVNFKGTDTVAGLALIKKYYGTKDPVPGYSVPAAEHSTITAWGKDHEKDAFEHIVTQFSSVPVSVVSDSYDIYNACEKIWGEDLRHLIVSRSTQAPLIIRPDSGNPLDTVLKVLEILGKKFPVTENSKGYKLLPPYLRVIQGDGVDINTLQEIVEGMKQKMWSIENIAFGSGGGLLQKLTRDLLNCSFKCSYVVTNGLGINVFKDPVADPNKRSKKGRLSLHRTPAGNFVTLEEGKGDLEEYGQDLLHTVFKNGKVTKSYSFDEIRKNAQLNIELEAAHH
Sequence of NAMPT (P43490 whole entry): as above

SMILES | IC50 (PC3 cells) [nM] | IC50 (NAMPT) [nM] | IC50 [1] [nM]
O=C(NCc1ccn2ccnc2c1)Nc1ccc(C2CCN(C(=O)C3CCOCC3)CC2)cc1 [Example 221, 1-(imidazo[1,2-a]pyridin-7-ylmethyl)-3-{4-[1-(tetrahydro-2H-pyran-4-ylcarbonyl)piperidin-4-yl]phenyl}urea] | 7.82 | 0.352 | 120
O=C(NCc1ccn2ccnc2c1)Nc1ccc(C2CCN(C(=O)C3COCCO3)CC2)cc1 (stereo not drawn) [Example 222, 1-{4-[1-(1,4-dioxan-2-ylcarbonyl)piperidin-4-yl]phenyl}-3-(imidazo[1,2-a]pyridin-7-ylmethyl)urea] | 4.08 | 0.192 | 112
O=C(NCc1ccn2ccnc2c1)Nc1ccc(C2CCN(C(=O)CC3CCOCC3)CC2)cc1 [Example 223, 1-(imidazo[1,2-a]pyridin-7-ylmethyl)-3-{4-[1-(tetrahydro-2H-pyran-4-ylacetyl)piperidin-4-yl]phenyl}urea] | 7.08 | 0.354 | 109
O=C(NCc1ccn2ccnc2c1)Nc1ccc(C2CCN(C(=O)CN3CCOCC3)CC2)cc1 [Example 224, 1-(imidazo[1,2-a]pyridin-7-ylmethyl)-3-{4-[1-(morpholin-4-ylacetyl)piperidin-4-yl]phenyl}urea] | 23 | 0.555 | 233
O=C(NCc1ccn2ccnc2c1)Nc1ccc(C2CCN(C(=O)CC3CCCO3)CC2)cc1 (stereo not drawn) [Example 225, 1-(imidazo[1,2-a]pyridin-7-ylmethyl)-3-{4-[1-(tetrahydrofuran-2-ylacetyl)piperidin-4-yl]phenyl}urea] | 9.27 | 0.673 | 155
CC(C)(O)CC(=O)N1CCC(c2ccc(NC(=O)NCc3ccn4ccnc4c3)cc2)CC1 [Example 226, 1-{4-[1-(3-hydroxy-3-methylbutanoyl)piperidin-4-yl]phenyl}-3-(imidazo[1,2-a]pyridin-7-ylmethyl)urea] | 7.26 | 0.608 | 113
CC(C)(O)C(=O)N1CCC(c2ccc(NC(=O)NCc3ccn4ccnc4c3)cc2)CC1 [Example 227, 1-{4-[1-(2-hydroxy-2-methylpropanoyl)piperidin-4-yl]phenyl}-3-(imidazo[1,2-a]pyridin-7-ylmethyl)urea] | 6.28 | 0.273 | 16.2
CC(C)C(=O)N1CCC(c2ccc(NC(=O)NCc3ccn4ccnc4c3)cc2)CC1 [Example 228, 1-(imidazo[1,2-a]pyridin-7-ylmethyl)-3-{4-[1-(2-methylpropanoyl)piperidin-4-yl]phenyl}urea] | 8.56 | 0.238 | 49.4
O=C(NCc1ccn2ccnc2c1)Nc1ccc(C2CCN(C(=O)c3ccccc3)CC2)cc1 [Example 229, 1-[4-(1-benzoylpiperidin-4-yl)phenyl]-3-(imidazo[1,2-a]pyridin-7-ylmethyl)urea] | 1.06 | 0.398 | 13.6
CC(C)(O)C(=O)N1CCC(c2ccc(C(=O)NCc3ccn4ccnc4c3)cc2)CC1 [Example 230, 4-[1-(2-hydroxy-2-methylpropanoyl)piperidin-4-yl]-N-(imidazo[1,2-a]pyridin-7-ylmethyl)benzamide] | 7.2 | 0.169 | 294
O=C(NCc1ccn2ccnc2c1)c1ccc(C2CCN(C(=O)C3CCOC3)CC2)cc1 (stereo not drawn) [Example 231, N-(imidazo[1,2-a]pyridin-7-ylmethyl)-4-[1-(tetrahydrofuran-3-ylcarbonyl)piperidin-4-yl]benzamide] | 35.1 | 0.546 | 817
O=C(NCc1ccn2ccnc2c1)c1ccc(C2CCN(C(=O)C3CCOCC3)CC2)cc1 [Example 232, N-(imidazo[1,2-a]pyridin-7-ylmethyl)-4-[1-(tetrahydro-2H-pyran-4-ylcarbonyl)piperidin-4-yl]benzamide] | 9.27 | 0.277 | 396
O=C(NCc1ccn2ccnc2c1)c1ccc(C2CCN(C(=O)C3COCCO3)CC2)cc1 (stereo not drawn) [Example 233, 4-[1-(1,4-dioxan-2-ylcarbonyl)piperidin-4-yl]-N-(imidazo[1,2-a]pyridin-7-ylmethyl)benzamide] | 9.37 | 0.401 | 495
O=C(NCc1ccn2ccnc2c1)c1ccc(C2CCN(C(=O)C3CCS(=O)(=O)CC3)CC2)cc1 [Example 234, 4-{1-[(1,1-dioxidotetrahydro-2H-thiopyran-4-yl)carbonyl]piperidin-4-yl}-N-(imidazo[1,2-a]pyridin-7-ylmethyl)benzamide] | 105 | 0.736 | 904
O=C(NCc1ccn2ccnc2c1)c1ccc(C2CCN(C(=O)CC3CCCO3)CC2)cc1 (stereo not drawn) [Example 235, N-(imidazo[1,2-a]pyridin-7-ylmethyl)-4-[1-(tetrahydrofuran-2-ylacetyl)piperidin-4-yl]benzamide] | 55.5 | 0.369 | 494
O=C(NCc1ccn2ccnc2c1)c1ccc(C2CCN(C(=O)CC3CCOCC3)CC2)cc1 [Example 236, N-(imidazo[1,2-a]pyridin-7-ylmethyl)-4-[1-(tetrahydro-2H-pyran-4-ylacetyl)piperidin-4-yl]benzamide] | 13.8 | 0.243 | 604
CC(C)OCC(=O)N1CCC(c2ccc(C(=O)NCc3ccn4ccnc4c3)cc2)CC1 [Example 237, N-(imidazo[1,2-a]pyridin-7-ylmethyl)-4-{1-[(propan-2-yloxy)acetyl]piperidin-4-yl}benzamide] | 37.2 | 0.285 | 451
CC[C@H](C)C(=O)N1CCC(c2ccc(C(=O)NCc3ccn4ccnc4c3)cc2)CC1 [Example 238, N-(imidazo[1,2-a]pyridin-7-ylmethyl)-4-{1-[(2S)-2-methylbutanoyl]piperidin-4-yl}benzamide] | 2.57 | 0.187 | 123
CC(C)C(=O)N1CCC(c2ccc(C(=O)NCc3ccn4ccnc4c3)cc2)CC1 [Example 239, N-(imidazo[1,2-a]pyridin-7-ylmethyl)-4-[1-(2-methylpropanoyl)piperidin-4-yl]benzamide] | 17.7 | 0.771 | 308
COCCC(=O)N(Cc1ccc(C#N)cc1)c1ccc(C(=O)NCc2ccc3nccn3c2)cc1 [Example 240, 4-[(4-cyanobenzyl)(3-methoxypropanoyl)amino]-N-(imidazo[1,2-a]pyridin-6-ylmethyl)benzamide] | 651 | 8.75 | 7350
CC(=O)N1CC=C(c2ccc(C(=O)NCc3ccn4ccnc4c3)s2)CC1 [Example 241, 5-(1-acetyl-1,2,3,6-tetrahydropyridin-4-yl)-N-(imidazo[1,2-a]pyridin-7-ylmethyl)thiophene-2-carboxamide] | 8.48 | 0.169 | 67.4
CS(=O)(=O)N1CC=C(c2ccc(C(=O)NCc3ccn4ccnc4c3)s2)CC1 [Example 242, N-(imidazo[1,2-a]pyridin-7-ylmethyl)-5-[1-(methylsulfonyl)-1,2,3,6-tetrahydropyridin-4-yl]thiophene-2-carboxamide] | 7.56 | 0.169 | 57.1
O=C(NCc1ccn2ccnc2c1)Nc1ccc(C2CCN(C(=O)C3CCS(=O)(=O)CC3)CC2)cc1 [Example 243, 1-(4-{1-[(1,1-dioxidotetrahydro-2H-thiopyran-4-yl)carbonyl]piperidin-4-yl}phenyl)-3-(imidazo[1,2-a]pyridin-7-ylmethyl)urea] | 28 | 0.169 | 169
O=C(NCc1ccn2ccnc2c1)c1cnc(N2C(=O)CC[C@H]2CO)s1 [Example 244, 2-[(2S)-2-(hydroxymethyl)-5-oxopyrrolidin-1-yl]-N-(imidazo[1,2-a]pyridin-7-ylmethyl)-1,3-thiazole-5-carboxamide] | 7040 | 1.69 | > 10000
C[C@@H]1COC(=O)N1c1ncc(C(=O)NCc2ccn3ccnc3c2)s1 [Example 245, N-(imidazo[1,2-a]pyridin-7-ylmethyl)-2-[(4R)-4-methyl-2-oxo-1,3-oxazolidin-3-yl]-1,3-thiazole-5-carboxamide] | 5500 | 0.502 | 2890
O=C(NCc1ccn2ccnc2c1)c1ccc(C2=CCN(S(=O)(=O)C3CC3)CC2)s1 [Example 246, 5-[1-(cyclopropylsulfonyl)-1,2,3,6-tetrahydropyridin-4-yl]-N-(imidazo[1,2-a]pyridin-7-ylmethyl)thiophene-2-carboxamide] | 2.43 | 0.22 | 73.2
O=C(NCc1ccn2ccnc2c1)c1ccc(-c2cnn(CC3CCCCO3)c2)s1 (stereo not drawn) [Example 247, N-(imidazo[1,2-a]pyridin-7-ylmethyl)-5-[1-(tetrahydro-2H-pyran-2-ylmethyl)-1H-pyrazol-4-yl]thiophene-2-carboxamide] | 1.34 | 0.275 | 62.7
O=C(NCc1ccn2ccnc2c1)c1ccc(-c2cnn(CC3CCCO3)c2)s1 (stereo not drawn) [Example 248, N-(imidazo[1,2-a]pyridin-7-ylmethyl)-5-[1-(tetrahydrofuran-2-ylmethyl)-1H-pyrazol-4-yl]thiophene-2-carboxamide] | 2.42 | 0.169 | 65.8
